Experimental data taken from US6787566B2, “Breakers of advanced glycation endproducts” (City of Hope, priority 1999, dated 2004).

Experiments:
[1] = target: T1, cross-linked collagen-AGE-BSA (Rattus norvegicus, UniProt P02454+P02466); assay: AGE-BSA-collagen ELISA: cleavage of glycated BSA cross-linked to collagen; type: biochemical; details: for AGE-breaking activity (cleavage of cross-linked collagen-AGE-BSA), in words: 0.1-10 mM final concentration, FIGS. 1A and 1C; for Concentration dependence of AGE-BSA-collagen crosslink breaking, in words: FIGS. 1A-C
T1 construct: purchased Biocoat (Collaborative Research, Bedford, Mass.) for the collagen-coated plates; Sigma Chemical co. for bovine serum albumin
T1 sequence (P02454 152-1207 limits assumed): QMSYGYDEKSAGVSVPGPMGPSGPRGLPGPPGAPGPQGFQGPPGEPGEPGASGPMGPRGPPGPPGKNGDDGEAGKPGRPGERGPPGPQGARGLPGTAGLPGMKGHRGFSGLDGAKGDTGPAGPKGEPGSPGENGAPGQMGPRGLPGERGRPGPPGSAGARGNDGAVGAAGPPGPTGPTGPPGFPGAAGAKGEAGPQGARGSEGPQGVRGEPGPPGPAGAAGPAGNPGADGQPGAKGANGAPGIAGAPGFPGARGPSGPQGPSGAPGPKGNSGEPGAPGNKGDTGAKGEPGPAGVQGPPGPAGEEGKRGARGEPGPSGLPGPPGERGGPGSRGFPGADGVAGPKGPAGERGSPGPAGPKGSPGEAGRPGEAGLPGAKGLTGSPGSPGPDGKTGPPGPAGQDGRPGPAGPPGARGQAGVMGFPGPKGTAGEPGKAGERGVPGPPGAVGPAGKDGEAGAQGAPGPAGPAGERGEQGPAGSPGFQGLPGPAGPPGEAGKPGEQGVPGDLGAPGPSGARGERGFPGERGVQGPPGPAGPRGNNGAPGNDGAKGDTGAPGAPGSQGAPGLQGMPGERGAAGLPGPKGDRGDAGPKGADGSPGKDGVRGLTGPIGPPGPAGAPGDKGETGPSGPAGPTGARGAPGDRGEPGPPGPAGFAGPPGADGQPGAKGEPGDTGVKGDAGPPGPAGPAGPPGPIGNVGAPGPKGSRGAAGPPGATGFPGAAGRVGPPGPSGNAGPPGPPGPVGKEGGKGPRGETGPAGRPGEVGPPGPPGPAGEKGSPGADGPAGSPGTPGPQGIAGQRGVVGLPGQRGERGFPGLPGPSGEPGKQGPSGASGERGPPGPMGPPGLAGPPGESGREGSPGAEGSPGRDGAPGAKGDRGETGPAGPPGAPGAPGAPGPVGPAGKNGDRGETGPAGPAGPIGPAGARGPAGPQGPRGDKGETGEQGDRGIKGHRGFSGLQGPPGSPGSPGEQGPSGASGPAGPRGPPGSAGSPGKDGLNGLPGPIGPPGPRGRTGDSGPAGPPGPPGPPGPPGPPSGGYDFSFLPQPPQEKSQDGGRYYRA
T1 sequence (P02466 86-1125 limits assumed): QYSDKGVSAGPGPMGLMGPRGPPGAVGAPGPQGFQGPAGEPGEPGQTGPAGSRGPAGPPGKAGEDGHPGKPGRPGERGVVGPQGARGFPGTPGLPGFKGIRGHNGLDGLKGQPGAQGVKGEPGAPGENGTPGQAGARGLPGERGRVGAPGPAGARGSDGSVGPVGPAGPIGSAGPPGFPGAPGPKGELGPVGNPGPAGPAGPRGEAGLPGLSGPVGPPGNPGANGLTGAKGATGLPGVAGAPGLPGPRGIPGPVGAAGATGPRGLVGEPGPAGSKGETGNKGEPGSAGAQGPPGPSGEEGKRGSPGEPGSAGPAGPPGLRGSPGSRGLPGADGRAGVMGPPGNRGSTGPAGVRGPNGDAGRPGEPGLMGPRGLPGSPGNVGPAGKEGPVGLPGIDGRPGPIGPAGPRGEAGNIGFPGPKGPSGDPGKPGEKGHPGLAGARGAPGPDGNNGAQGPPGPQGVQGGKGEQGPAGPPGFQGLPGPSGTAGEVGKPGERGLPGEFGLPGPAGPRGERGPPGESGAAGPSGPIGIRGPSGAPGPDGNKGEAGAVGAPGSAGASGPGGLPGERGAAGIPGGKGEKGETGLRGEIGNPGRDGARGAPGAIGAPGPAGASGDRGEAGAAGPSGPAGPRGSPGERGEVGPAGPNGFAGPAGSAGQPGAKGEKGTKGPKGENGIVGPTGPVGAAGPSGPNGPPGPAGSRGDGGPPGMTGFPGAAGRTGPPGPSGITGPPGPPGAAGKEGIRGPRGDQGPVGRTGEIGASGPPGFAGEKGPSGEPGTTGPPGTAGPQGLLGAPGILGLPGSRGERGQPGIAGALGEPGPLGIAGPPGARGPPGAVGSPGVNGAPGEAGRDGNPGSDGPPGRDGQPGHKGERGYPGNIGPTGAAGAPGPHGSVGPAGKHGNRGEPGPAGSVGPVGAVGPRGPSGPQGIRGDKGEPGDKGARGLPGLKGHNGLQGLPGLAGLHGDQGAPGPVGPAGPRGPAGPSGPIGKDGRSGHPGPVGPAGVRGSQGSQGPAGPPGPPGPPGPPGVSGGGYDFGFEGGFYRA
Method: In vitro evaluation of the ability of the AGE-breaker compounds to cleave and break cross-linking of glycated BSA (AGE-BSA) (prepared as described (Rahbar et al., 1999)) to the rat-tail-tendon-collagen was by a special ELISA (Vasan et al., 1996). The rat-tail-tendon-collagen coated plates were first blocked first with 300 μL of Superblock blocking buffer (Pierce Chemicals, Rockford, Ill.) for one hour. The blocking solution was removed from the wells by washing the plates twice with PBS-0.05% Tween 20 (PBS-T) using a Dynatech ELISA-plate washer. Cross-linking of various concentrations of AGE-BSA (0, 0.01, 0.05, 0.1, 0.25, 0.50, and 1.0 μg per well) to rat-tail-collagen coated plates was performed without the testing compound, and the plates were incubated for 5 hours at 37° C. After washing the wells three times with PBS-T to remove the unattached AGE-BSA, test concentrations of the compound (50 μL/well) dissolved in PBS were added to wells in triplicate and incubation continued at 37° C. overnight. After washing with PBS-T, the amount of BSA remaining attached to the tail collagen plate was then quantified by addition of rabbit anti-BSA polyclonal antibodies (50 μL/well) for 1 hour at 37° C. The wells were then washed three times with PBS-T and developed with the chromogenic substrate ABTS (100 μL/well). Absorbance was measured at 410 nm in microplate reader (BioRad, Hercules, Calif.).
The percentage breaking activity is calculated by the following formula: 100×[(A410, PBS control)−(A410, AGE-breaker compound)]/[A410, PBS control].

[2] = test system: IgG-AGE cross-linked to the rat RBC surface; assay: Cleavage of IgG-AGE cross-linked to RBC surface, anti-IgG ELISA; type: cell-based; details: RBCs of diabetic rats vs diabetic and non-diabetic controls; FIG. 6
Method: IgG cross-linked to the RBC surface was determined with an anti-IgG by a modification of the method described by Vasan et al. (1996). Briefly, heparinized blood was drawn from the tail vein in capillary tubes, inverted several times, then centrifuged at 200×g for five minutes at room temperature. RBCs were washed three times with PBS in 0.5 mL microfuge tubes and packed with a final centrifugation at 500×g. Red cells were diluted at 1:10 to 1:100 in Dulbecco's Modified Eagle's Medium that is normal for glucose. Experimental compounds were added at desired concentrations and incubated at 37° C. in a CO2 incubator for 24 hours in sterile conditions. Control incubations contained RBCs and PBS alone. After incubation, RBCs were washed three times in PBS and packed cells diluted 1:200 to 1:500. The RBC suspensions were gently vortexed and 50 μL aliquots added to 450 μL of a polyclonal rabbit anti-rat IgG conjugated to alkaline phosphatase (diluted 1:2500 in PBS). […] The RBCs were pelleted and the supernatant was read at […] in either a conventional spectrometer or an ELISA reader. Blank readings were obtained by incubating tubes without cells.

[3] = target: T2, native and glycated β-amyloid (1-40) peptide fibrils (Homo sapiens, UniProt P05067); assay: Thioflavine T fluorescence assay of β-amyloid fibril disaggregation; type: biochemical; details: ThT assay
T2 construct: β-amyloid (1-40) peptide was from Bachem (Torrance, Calif.); purchased Bachem (Torrance, Calif.)
T2 sequence (P05067 672-711): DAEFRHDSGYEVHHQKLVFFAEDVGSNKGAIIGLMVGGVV
Method: Both dyes have been adapted to in vitro measurements of amyloid fibril formation and quantification. ThT binding to β-amyloids gives rise to a large fluorescence excitation spectral shift that allows selective excitation of the amyloid fibril bound ThT (Tjernberg et al., 1999). In the present study, we have investigated the disaggregation of both native (unmodified) and glycated β-amyloid (1-40) peptide by the AGE-breaker compounds introduced here. Stock solutions of peptide were dissolved in deionized water at a concentration of 1 mg/mL. For AGE crosslinking experiments, they were incubated in 4 mL polypropylene tubes at a concentration of 250 μg/mL (60 μM) and 50 mM glucose in 50 mM sodium phosphate buffer, pH 7.9, at 50° C. in the dark for 5 days. Sodium azide (0.01% w/v) was added to prevent microbiological growth. In long-term experiments, water was added every 12 hours to compensate for solvent evaporation. AGE-β-amyloid was then dialyzed against double-distilled water using Spectra/Por CE dialysis membrane (molecular mass cut off: 1000 Da), and then freeze dried. Two sets of experiments were prepared for each compound. Solutions for the first experiment contained 100 μM of β-amyloid in 50 mM Tris-buffered saline (TBS) pH 7.4, and […] (the drugs were dissolved in DMSO and the solutions were prepared for dilution from this DMSO stock). The second set contained 100 μM of β-amyloid in TBS and 100 μM of one compound. The reactions were incubated at 37° C. for 24 hours without stirring (stagnant assay). Control experiments were prepared accordingly except that no AGE-breaker compounds were added to the tubes. The same protocol was used for both native and glycated β-amyloid peptides. The incubated samples are vortexed and 40 μL aliquots are withdrawn and mixed with 960 μL of 10 μM ThT in 10 mM sodium phosphate-buffer. Fluorescence measurements were taken with excitation of 437 nm and emission at 485 nm. Slit widths are set to 5 nm.

[4] = test system: crosslinks formed in skin and tail collagen of diabetic rats; details: cited from earlier work
β-amyloid fibrils = target: T3, β-amyloid fibrils (Homo sapiens, UniProt P05067); details: 20 mM; cited from earlier work
T3 construct: β-AP (amino acids 1-40, from Bachem, Torrance, Calif.)
T3 sequence (P05067 672-711): as above

Row | Compound | AGE-breaking activity (cleavage of cross-linked collagen-AGE-BSA), in words [1] | Concentration dependence of AGE-BSA-collagen crosslink breaking, in words [1] | Overall AGE-breaking property, in words ([1]; overall judgement of the patent's tests) | IgG-AGE bound to RBC surface, in words [2] | Disaggregation of fibrillar forms of native and glycated β-amyloid, in words [3] | Cleaving crosslinks formed in skin and tail collagen, in words [4] | Disaggregation of β-amyloid fibrils, in words (β-amyloid fibrils)
1 | 1,4-benzene-bis[4-methyleneaminophenoxyisobutyric acid] [LR102] | very effective AGE-breakers | more potent at lower concentrations | most effective AGE-breakers | almost the same IgG-AGE content as that of non-diabetic control | clearly confirmed the efficacy | – | –
2 | Cc1sc[n+](CC(=O)c2ccccc2)c1C.[Cl-] [ALT711] | – | – | – | – | – | not effective | –
3 | O=C(C[n+]1ccsc1)c1ccccc1.[Br-] [PTB, N-phenacylthiazolium bromide] | – | – | – | – | – | – | disaggregates β-amyloid fibrils
4 | methylene bis [LR90, methylene bis [4,4′-(2-chlorophenylureidophenoxyisobutyric acid)]] | very effective AGE-breakers | more effective breakers at higher concentrations | – | – | clearly confirmed the efficacy | – | –
